Laboratory results as given in patent publication US20240150301A1, “METHODS OF MODULATING ANDROGEN RECEPTOR CONDENSATES” (ETERN BIOPHARMA (SHANGHAI) CO., LTD., priority 2021, published 2024).
Entries after “also recorded” stand apart in the source; their conditions may differ.

Key:
VCaP cells = assay: Cell proliferation assay (CellTiter-Glo), VCaP; assay type: cell-based; details: Homo sapiens, 96 h, 4 days, read-out: VCaP IC50 AR-positive, AR-V7 positive (cell proliferation)
Procedure: (§1) To evaluate the effect of exemplary compounds on proliferation of AR/AR-V7-dependent prostate cancer cells, cell viability assay was performed in LNCaP (AR-positive), 22Rv1 (AR-positive; AR-V7 positive), VCaP (AR-positive; AR-V7 positive), and DU145 (AR-negative) cells, respectively.
(§2) LNCaP cells were seeded in charcoal stripped FBS/phenol red-free RPMI medium in 96-well plates for 24 h before pretreating for 1 h with test compounds prior to addition of 0.2 nM DHT for 4 days. 22Rv1 or VCaP cells were cultured in charcoal stripped FBS/phenol red-free RPMI medium for 24 h before addition of test compounds for 4 days. DU145 cells were seeded in complete medium for 24 h before addition of test compounds for 4 days. Cell proliferation was measured with CellTiter-Glo® Luminescent Cell Viability Assay (Promega). In LNCaP cells, DHT-dependent cell growth is calculated by measuring the difference between vehicle control (DMSO) cells treated with or without 0.2 nM DHT. The IC50 values were determined using the four parameter fit via GraphPad Prism graphing software.

AR = molecular target: T1, AR (Homo sapiens, UniProt P10275); assay: ARE-luciferase reporter assay in LNCaP cells (DHT-induced); assay type: cell-based; details: 1 nM DHT, 24 h, normalized to cell viability, read-out: LNCaP ARE-luc IC50
T1 sequence (P10275 1-920 T878A): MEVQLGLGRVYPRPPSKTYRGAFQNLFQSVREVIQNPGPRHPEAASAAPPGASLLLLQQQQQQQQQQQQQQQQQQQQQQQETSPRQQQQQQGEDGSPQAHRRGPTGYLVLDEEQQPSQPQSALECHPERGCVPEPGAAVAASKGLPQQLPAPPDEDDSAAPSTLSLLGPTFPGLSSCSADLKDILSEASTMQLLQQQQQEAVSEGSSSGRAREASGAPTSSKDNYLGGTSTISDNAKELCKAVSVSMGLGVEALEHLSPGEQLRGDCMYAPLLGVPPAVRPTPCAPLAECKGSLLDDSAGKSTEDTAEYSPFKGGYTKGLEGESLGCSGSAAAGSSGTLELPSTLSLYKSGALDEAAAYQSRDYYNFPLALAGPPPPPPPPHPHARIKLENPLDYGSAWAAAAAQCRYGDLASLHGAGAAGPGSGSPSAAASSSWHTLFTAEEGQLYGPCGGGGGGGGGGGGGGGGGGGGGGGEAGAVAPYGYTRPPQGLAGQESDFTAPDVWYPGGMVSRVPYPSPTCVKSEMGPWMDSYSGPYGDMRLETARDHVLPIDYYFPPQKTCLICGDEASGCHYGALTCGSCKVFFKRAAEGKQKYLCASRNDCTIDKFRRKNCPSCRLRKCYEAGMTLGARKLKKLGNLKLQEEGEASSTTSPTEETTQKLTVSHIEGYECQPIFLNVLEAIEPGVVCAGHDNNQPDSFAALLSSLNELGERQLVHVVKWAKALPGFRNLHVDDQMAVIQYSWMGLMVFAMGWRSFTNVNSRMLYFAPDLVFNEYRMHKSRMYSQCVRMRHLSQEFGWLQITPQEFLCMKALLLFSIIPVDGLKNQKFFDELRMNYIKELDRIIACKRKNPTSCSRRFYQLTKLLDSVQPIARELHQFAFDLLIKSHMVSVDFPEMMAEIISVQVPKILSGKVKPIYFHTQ
Procedure: (§3) The ARE-luciferase reporter plasmid contains functional AREs (androgen response elements) to which AR binds in response to androgen to induce luciferase activity. LNCaP (Cobioer) cells were transiently transfected with the ARE-luciferase reporter in charcoal stripped FBS/phenol red-free RPMI medium prior to treatment for 24 hours. Then DMSO or test compounds with serial diluted concentrations were added one hour prior to the addition of DHT(1 nM). After 24 h of incubation with DHT, cells were lysed and luciferase activity was assayed using the ONE-Glo™ Luciferase Assay System (Promega) and measured using EnVision Multimode Plate Reader, according to manufacturer's instructions. Values were normalized to cell viability determined by CellTiter-Glo® Luminescent Cell Viability Assay Kit (Promega). […] GraphPad Prism graphing software was used to calculate IC50 values.

22Rv1 cells = assay: Cell proliferation assay (CellTiter-Glo), 22Rv1; assay type: cell-based; details: Homo sapiens, 22Rv1, 96 h; 4 days; read-out: 22Rv1 IC50 AR-positive; AR-V7 positive (cell proliferation)
Procedure: as §1, §2

AR V7 [1] = molecular target: T2, AR V7 (Homo sapiens, UniProt P10275); assay: ARE-luciferase reporter assay in HEK293T cells cotransfected with AR-V7; assay type: cell-based; design: host or cells: HEK293T; details: HEK293T cotransfected with AR-V7, hormone-starved, 24 h; read-out: HEK293T(V7) ARE-luc IC50
T2 sequence (P10275 1-644 isoform P10275-3): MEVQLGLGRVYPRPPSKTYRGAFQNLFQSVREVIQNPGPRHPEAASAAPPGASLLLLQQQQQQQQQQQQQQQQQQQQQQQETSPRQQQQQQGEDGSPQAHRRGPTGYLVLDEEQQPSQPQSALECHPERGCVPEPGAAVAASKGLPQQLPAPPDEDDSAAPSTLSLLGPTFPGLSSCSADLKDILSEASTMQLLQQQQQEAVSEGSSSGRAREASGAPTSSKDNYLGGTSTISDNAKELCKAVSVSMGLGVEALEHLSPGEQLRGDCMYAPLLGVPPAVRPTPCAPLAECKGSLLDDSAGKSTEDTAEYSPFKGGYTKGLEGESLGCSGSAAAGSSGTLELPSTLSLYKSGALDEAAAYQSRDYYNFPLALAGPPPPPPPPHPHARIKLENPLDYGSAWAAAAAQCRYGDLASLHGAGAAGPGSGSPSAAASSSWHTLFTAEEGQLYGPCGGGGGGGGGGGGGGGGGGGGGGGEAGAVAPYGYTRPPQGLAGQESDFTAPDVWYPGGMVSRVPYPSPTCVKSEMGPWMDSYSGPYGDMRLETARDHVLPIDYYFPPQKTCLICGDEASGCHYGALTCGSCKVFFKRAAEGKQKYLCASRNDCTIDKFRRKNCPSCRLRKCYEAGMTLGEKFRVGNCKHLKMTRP
Procedure: as §3
(§4) To evaluate the transcriptional activity of AR-V7, HEK293T(Cobioer) cells were transiently cotransfected with an expression vector for AR-V7 and the ARE-luciferase reporter in hormone-starved conditions. For 22Rv1(Cobioer) prostate cancer cell line, which expresses endogenous AR-V7, ARE-luciferase reporter was transiently transfected in hormone-starved conditions. 24 h after transfection, DMSO or test compounds with serial diluted concentrations were added for additional 24 h incubation. Reporter activity was detected and normalized by cell viability as described above. Treatments were normalized to DMSO control activity, and IC50 values were further determined via GraphPad Prism graphing software.

DU145 cells = assay: Cell proliferation assay (CellTiter-Glo), DU145; assay type: cell-based; details: Homo sapiens, DU-145, 96 h; 4 days; read-out: DU145 IC50 AR-negative (cell proliferation)
Procedure: as §1, §2

LNCaP cells = assay: Cell proliferation assay (CellTiter-Glo), LNCaP; assay type: cell-based; details: Homo sapiens, 96 h, 0.2 nM DHT, 4 days, read-out: LNCaP IC50 AR-positive (cell proliferation)
Procedure: as §1, §2

AR V7 [2] = molecular target: T2, AR V7; assay: ARE-luciferase reporter assay in 22Rv1 cells (endogenous AR-V7); assay type: cell-based; design: 22Rv1(Cobioer) prostate cancer cell line, which expresses endogenous AR-V7; host or cells: 22Rv1; details: 22Rv1, hormone-starved, 24 h; read-out: 22Rv1 ARE-luc IC50
Procedure: as §3, §4

[3] = system: AR or AR-V7 downstream target genes; assay: AR/AR-V7 target gene qPCR assay in 22Rv1 cells; assay type: cell-based, human; details: 22Rv1, 48 h, RT-qPCR
Procedure: To evaluate the effect of exemplary compounds on mRNA expression of AR or AR-V7 downstream target genes, real-time quantitative PCR measurements were performed in prostate cancer cell line 22Rv1 expressing both AR and AR-V7.
22Rv1 cells were cultured in charcoal stripped FBS/phenol red-free RPMI medium for 24 h, and then treated with DMSO or test compounds for additional 48 h prior to RT-qPCR. Briefly, RNA was isolated from cells using RNeasy Mini Kit (Qiagen) following the manufacturer's protocol. RNA was reverse transcribed and subjected to qPCR using PowerUp™ SYBR™ Green Master Mix (Applied Biosystems). The relative quantity of the target genes was calculated using the ΔΔCt method by comparing Ct of the target genes and mean Ct of the housekeeping gene GAPDH.

[4] = system: AF-1 recombinant protein (human AR-NTD); assay: AF-1 STD NMR binding assay; details: 25 μM AF-1, 250 μM compound
Procedure: Binding of the exemplary compounds to human AR-NTD was performed using STD […] Nuclear Magnetic Resonance (STD NMR) analysis with purified AF-1 recombinant protein.
Binding of the exemplary compounds to human AR-NTD was performed using STD […] Nuclear Magnetic Resonance (STD NMR) analysis with purified Tau-5AF-1 recombinant protein. All NMR spectroscopy experiments were performed on a Bruker Avance III 600 MHz spectrometer. NMR samples contain 25 μM AF-1 and 250 μM compound, and were diluted by PBS (pH 7.4, 60% D20) buffer to 500 μL. For the STD experiments, the standard Bruker stddiffgp19.3 pulse sequence was used with a saturation time of 2 s and a spectral width of 16 ppm with 128 scans. The on-resonance frequency was set to −0.4 ppm, while the off-resonance frequency was set to 33 ppm. Appropriate blank experiments, in the absence of protein or compound, were performed to test the lack of direct saturation to the compound protons.

IC50 (VCaP cells) | IC50 (22Rv1 cells) | IC50 (AR V7 [1]) | IC50 (DU145 cells) | IC50 (LNCaP cells) | IC50 (AR V7 [2]) | SMILES | IC50 (AR) | mRNA expression of target genes of either AR or AR-V7 [3] | binding to AF-1 (STD difference spectrum) [4]
8.81 µM | 2.75 µM | 2.3 µM | > 20 µM | 0.52 µM | 4.4 µM | CC(C)(c1ccc(OCc2ccnc(N=S3(=O)CCCC3)n2)cc1)c1cc(Cl)c(OCCCl)c(C#N)c1 [Compound 2, 3-chloro-2-(2-chloroethoxy)-5-(2-(4-((2-((1-oxidotetrahydro-1λ^6-thiophen-1-ylidene)amino)pyrimidin-4-yl)methoxy)phenyl)propan-2-yl) benzonitrile] | 2.82 µM | inhibited mRNA expression | 
 |  |  |  |  |  | CC(C)(c1ccc(OCc2ccnc(N=S3(=O)CCNCC3)n2)cc1)c1cc(Cl)c(OCCO)c(C#N)c1 [Compound 62, 3-chloro-2-(2-hydroxyethoxy)-5-(2-(4-((2-((1-oxido-1λ^6-thiomorpholin-1-ylidene)amino)pyrimidin-4-yl)methoxy)phenyl)propan-2-yl)benzonitrile] |  |  | confirmed the binding; also recorded: binds to AF-1
